US8604217B2, “Compound, a process for its preparation, a pharmaceutical composition, use of a compound, a method for modulating or regulating serine/threonine kinases and a serine/threonine kinases modulating agent” (Selvita S.A., priority 2009, dated 2013)

What was measured:
[1] = tested on: human acute lymphocytic leukemia E6.1 Jurkat cells; assay: Growth inhibition test (MTS) on E6.1 Jurkat cells; format: cell-based; conditions: 72 hours, read-out: Jurkat ED50
Procedure: (§1) Twenty thousand cells of human acute lumphocytic leukemia E6.1 Jurkat were inoculated into each well of a 96-well microplate (manufactured by Corning Corp.) using RPMI 8226 medium (culture medium) containing 10% fetal calf serum (FCS). Next day, a dimethyl sulfoxide (DMSO) solution of each test compound prepared in a concentration of 10 mmol/L was further diluted with culture medium to the desired concentrations (0.1, 0.5, 1, 2.5, 5 and 10 micromol/L), and the diluted solution was added to each well. The individual wells were further cultured in 5% carbon dioxide at 37° C. for 72 hours. After completion of the culture, 10 μl MTS (3-(4,5-Dimethyl-2-thiazolyl)-5-(carboxymethoxyphenyl)-2-(4-sulfophenyl)-2H-tetrazolium, inner salt assay (CellTiter96® AQueous One Solution Cell Proliferation Assay, Promega) was added to each well, and culturing was performed in 5% carbon dioxide at 37° C. for 2 hours. Using a microplate spectrophotometer (Synergy 2 multi-mode microplate reader (BioTek)), the absorbance of each well was measured at 490 nm. The value for cells not incorporated with a test compound was designated as 100%. By comparing these values with the absorbance difference obtained at the well in which each test compound was added, the cell viability (% viability) after treatment with the test compound was calculated.

[2] = tested on: human hepatoma HepG2 cells; assay: Growth inhibition test (MTS) on HepG2 cells; format: cell-based; conditions: 72 hours, read-out: HepG2 ED50
Procedure: as §1, with “Two” for “Twenty”, “hepatoma HepG2” for “acute lumphocytic leukemia E6.1 Jurkat”, “DMEM” for “RPMI 8226”

PIM-1 = PIM-1 (Homo sapiens (Human), UniProt P11309); assay: Luminometric kinase assay for PIM1 kinase (Kinase-Glo); format: biochemical; conditions: 1 μM ATP, 25 min at RT
Procedure: Kinase assay was performed using luminescent Kinase-Glo® (Promega) system. The Kinase-Glo® Luminescent Kinase Assay Platform provides a homogeneous, high-throughput screening method for measuring kinase activity by quantifying the amount of ATP remaining in solution following a kinase reaction. The luminescent signal is correlated with the amount of ATP present and is inversely correlated with the kinase activity. Appropriate amounts of both kinase and substrate were mixed in 96-well, white wall plate in the reaction buffer (8 mM MOPS/NaOH, pH7.0, 0.2 mM EDTA, 2 mM MgCl2). Tested compounds were diluted in DMSO and serial dilutions starting with 1 μM were added to the palates. Reaction was initiated by adding 1 μM of ATP solution and conducted for 25 min. at RT. Luminescent signal was detected by adding Kinase-Glo® reagent and measured using a microplate spectrophotometer (Synergy 2 multi-mode microplate reader (BioTek)). IC50 values were obtained by fitting sigmoidal dose-response curve (variable slope) using GraphPad Prism software.

[3] = tested on: human myelomonocytic, biphenotypic leukemia MV4-11 cells; assay: Growth inhibition test (MTS) on MV4-11 cells; format: cell-based; conditions: Homo sapiens, MV4-11, 72 hours, read-out: MV-4-11 ED50
Procedure: as §1, with “Ten” for “Twenty”, “myelomonocytic, biphenotypic” for “acute lumphocytic”, “MV4-11” for “E6.1 Jurkat”, “Iscove's MDM” for “RPMI 8226”

[4] = tested on: human breast adenocarcinoma MCF7 cells; assay: Growth inhibition test (MTS) on MCF7 cells; format: cell-based; conditions: Homo sapiens, MCF7, 72 hours, read-out: MCF-7 ED50
Procedure: as §1, with “Two” for “Twenty”, “breast adenocarcinoma MCF7” for “acute lumphocytic leukemia E6.1 Jurkat”, “Corp.), and” for “Corp.)”, “DMEM” for “RPMI 8226”

[5] = tested on: human prostate adenocarcinoma PC3 cells; assay: Growth inhibition test (MTS) on PC3 cells; format: cell-based; conditions: Homo sapiens, PC-3, 72 hours, read-out: PC-3 ED50
Description: as §1, with “Two” for “Twenty”, “prostate adenocarcinoma PC3” for “acute lumphocytic leukemia E6.1 Jurkat”, “Corp.), and” for “Corp.)”, “F12K (Ham's F12:[…]” for “RPMI”, “[…] 1:1)” for “8226”

Sequence of PIM-1 (P11309 whole entry): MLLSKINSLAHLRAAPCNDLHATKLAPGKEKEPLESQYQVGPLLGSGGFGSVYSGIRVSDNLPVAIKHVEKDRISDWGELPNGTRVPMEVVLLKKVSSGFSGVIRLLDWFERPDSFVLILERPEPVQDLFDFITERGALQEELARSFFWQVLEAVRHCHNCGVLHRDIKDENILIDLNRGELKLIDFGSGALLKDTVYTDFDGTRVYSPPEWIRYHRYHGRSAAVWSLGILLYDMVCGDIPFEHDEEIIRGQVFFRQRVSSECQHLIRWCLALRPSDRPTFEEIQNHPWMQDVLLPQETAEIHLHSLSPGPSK

SMILES	IC50 [1]	IC50 [2]	IC50 (PIM-1)	IC50 [3]	IC50 [4]	IC50 [5]
CN(C)CCN(Cc1ccccc1)c1nc2c(Br)c(Br)c(Br)c(Br)c2[nH]1 [Compound 158, N-benzyl-4,5,6,7-tetrabromo-N-(2-(dimethylamino)ethyl)-1H-benzo[d]imidazol-2-amine]	8.42 µM	3.58 µM	0.0627 µM	4.86 µM	8.31 µM	8.83 µM
CN(C)CCN1CCC(CNc2nc3c(Br)c(Br)c(Br)c(Br)c3[nH]2)C1 (stereo not shown) [Compound 166, 4,5,6,7-tetrabromo-N-((1-(2-(dimethylamino)ethyl)pyrrolidin-3-yl)methyl)-1H-benzo[d]imidazol-2-amine]	4.92 µM	2.62 µM	0.051 µM	1.19 µM	4.93 µM	3.15 µM
Brc1cccc(Nc2nc3c(Br)c(Br)c(Br)c(Br)c3[nH]2)c1 [Compound 236, 4,5,6,7-tetrabromo-N-(3-bromophenyl)-1H-benzo[d]imidazol-2-amine]	4.4 µM	2.2 µM	–	1.6 µM	4.2 µM	2.5 µM
Brc1c(Br)c(Br)c2[nH]c(NCCN3CCN(c4ncccn4)CC3)nc2c1Br [Compound 247, 4,5,6,7-tetrabromo-N-(2-(4-(pyrimidin-2-yl)piperazin-1-yl)ethyl)-1H-benzo[d]imidazol-2-amine]	7.84 µM	9.01 µM	0.109 µM	5.96 µM	7.15 µM	–
CN1CCCN(c2nc3c(Br)c(Br)c(Br)c(Br)c3[nH]2)CC1 [Compound 256, 4,5,6,7-tetrabromo-2-(4-methyl-1,4-diazepan-1-yl)-1H-benzo[d]imidazole]	4.86 µM	3.39 µM	–	2.6 µM	5.11 µM	5.18 µM
Brc1c(Br)c(Br)c2[nH]c(Nc3ccc4ccccc4c3)nc2c1Br [Compound 259, 4,5,6,7-tetrabromo-N-(naphthalen-3-yl)-1H-benzo[d]imidazol-2-amine]	7.11 µM	5.49 µM	–	6.44 µM	5.9 µM	3.51 µM
Brc1c(Br)c(Br)c2[nH]c(N3CCCNCC3)nc2c1Br [Compound 260, 4,5,6,7-tetrabromo-2-(1,4-diazepan-1-yl)-1H-benzo[d]imidazole]	5.35 µM	7.04 µM	0.0299 µM	1.45 µM	5.65 µM	5.59 µM
Brc1c(Br)c(Br)c2[nH]c(NC3CCCCCCC3)nc2c1Br [Compound 261, 4,5,6,7-tetrabromo-N-cyclooctyl-1H-benzo[d]imidazol-2-amine]	4.52 µM	4.29 µM	0.138 µM	3.41 µM	4.94 µM	3.2 µM
CN1CCC(N(C)CC(Nc2nc3c(Br)c(Br)c(Br)c(Br)c3[nH]2)c2ccccc2)CC1 (stereo not shown) [Compound 263, N-(4,5,6,7-tetrabromo-1H-benzo[d]imidazol-2-yl)-N′-methyl-N′-(1-methylpiperidin-4-yl)-1-phenylethane-1,2-diamine]	2.56 µM	2.66 µM	0.0475 µM	2.39 µM	2.76 µM	2.64 µM
CCN1CCCC1CNc1nc2c(Br)c(Br)c(Br)c(Br)c2[nH]1 (stereo not shown) [Compound 265a, 4,5,6,7-tetrabromo-N-((1-ethylpyrrolidin-2-yl)methyl)-1H-benzo[d]imidazol-2-amine]	3.62 µM	1.8 µM	0.0674 µM	2.22 µM	3.09 µM	4.57 µM
CN(C)CC(CNc1nc2c(Br)c(Br)c(Br)c(Br)c2[nH]1)C(O)c1ccccc1 (stereo not shown) [Compound 272, 2-((4,5,6,7-tetrabromo-1H-benzo[d]imidazol-2-ylamino)methyl)-3-(dimethylamino)-1-phenylpropan-1-ol]	2.76 µM	2.26 µM	0.0433 µM	2.42 µM	4.51 µM	4.87 µM
N[C@@H]1CCCC[C@H]1Nc1nc2c(Br)c(Br)c(Br)c(Br)c2[nH]1 [Compound 304RR, (1R,2R)-N1-(4,5,6,7-tetrabromo-1H-benzo[d]imidazol-2-yl)cyclohexane-1,2-diamine]	3.15 µM	2.64 µM	0.00526 µM	0.25 µM	2.36 µM	3.16 µM
Nc1cc(Br)c(Br)cc1Nc1nc2c(Br)c(Br)c(Br)c(Br)c2[nH]1 [Compound 317, 4,5-dibromo-N1-(4,5,6,7-tetrabromo-1H-benzo[d]imidazol-2-yl)benzene-1,2-diamine]	7.05 µM	4.33 µM	0.598 µM	3.95 µM	6.63 µM	–
